For the assay, the system named is MYO5A. The assay can be described thus: Gene modulation (RT-qPCR, PCR array mQPA H-Melanocyte-64) in normal human epidermal melanocytes (NHEM). In kind it is cell-based. The settings on record: NHEM cells. On the procedure: Normal human epidermal melanocytes were cultivated for 24 hours. Culture medium was then removed and replaced by fresh medium containing the active ingredient to be evaluated or exempt of it (control). Cells were cultivated for additional 72 hours. All experimental conditions were performed in triplicate.
At the end of the cultivation, the cells were harvested and washed with phosphate buffered saline (PBS) solution and immediately frozen at -80 °C. The expression of selected markers was analyzed using RT-qPCR method on mRNA extracted from cells layer for each treatment condition. The differential expression analysis was performed by PCR arrays of the screening format "mQPA H-Melanocyte-64", which focuses on 64 genes selected for their importance in pigmentation and melanocyte biology.
Total RNA was extracted from each sample using TRI-Reagent®. The amount and quality of the RNA was evaluated using a lab-on-a-chip Bioanalyzer (Agilent technologies). Potential contaminants traces of DNA were removed […] The incorporation of fluorescence in amplified DNA was measured continuously during the PCR cycles. […] The value selected for RE calculations is the "output point" (Ct) of the fluorescence curve. For a given marker, the highest is the cycle number; the lowest, is the mRNA quantity. The RE value is expressed in arbitrary units (AU) according to the equation: (((1)/(2)))^NC x 10^6 [formula] Where NC is the number of cycles.
The analysis of the gene expression of selected melanogenesis genes in NEHM cells treated with resveratrol (5 micrograms/ml) on one side, and Niaciamide (0.5 mg/ml) on the other side, has been compared with the gene expression of the same selected melanogenesis genes in NEHM cells treated with a combination of resveratrol (5 micrograms/ml) and Niaciamide (0.5 mg/ml).
(Quantitative PCR measures a nucleic acid by following its amplification.)

Where [1] appears, read: 72 hours treatment, resveratrol 5 µg/ml, niacinamide 0.5 mg/ml, combination 5 µg/ml + 0.5 mg/ml, read-out: MYO5A (expression ratio compared to control).
Where [2] appears, read: 72 hours, resveratrol 5 micrograms/ml alone or niacinamide 0.5 mg/ml alone, read-out: down-regulation of MYO5A (signed change when compared to untreated cells).

Read-outs that look alike come from different tables or passages of the source.

For the molecule `NC(=O)c1cccnc1` [Niacinamide, 3-pyridinecarboxamide], the inhibition at 500 µg/mL by setting is: under setting [1], 15%; under setting [2], 15%.
On to `Oc1ccc(C=Cc2cc(O)cc(O)c2)cc1` [Resveratrol, 3,4',5 trihydroxystilbene], for which the inhibition at 5 µg/mL was determined as 25% under setting [1] and 25% under setting [2].

The values are drawn from patent EP2522331A1, “Use of resveratrol and niacinamide” (DSM IP Assets B.V., priority 2011, dated 2012).
